Results from patent US20180153931A1 (Aventis Pharma S.A., priority 2011, published 2018).

What was measured:
[1] = test system: colon adenocarcinoma C51; test: Antitumor efficacy against colon adenocarcinoma C51 grafted in BALB/c mice (T/C, T-C, log cell kill)
[2] = Toxicity (drug death, body weight loss, HNTD) in C51 tumor-bearing BALB/c mice; format: in vivo
From the text: The animals are observed every day.
Toxicity was declared at dosages inducing≥20% body weight loss or≥10% drug death

[3] = Phase I study: pharmacokinetics of cabazitaxel and cisplatin in patients; conditions: cisplatin 75 mg/m^2 followed by cabazitaxel
[4] = cisplatin dose 75 mg/m^2; value given with 'previously reported'; cited from earlier work
[5] = cabazitaxel alone 7.7 mg/kg/inj IV (total 15.4), days 5, 12
[6] = cabazitaxel alone 12.4 mg/kg/inj IV (total 24.8), days 5, 12
[7] = cabazitaxel alone 20.0 mg/kg/inj IV (total 40.0), days 5, 12
[8] = cabazitaxel alone 32.3 mg/kg/inj IV (total 64.6), days 5, 12
[9] = cisplatin alone 2.7 mg/kg/inj IV (total 5.4), days 5, 12

SMILES: CO[C@H]1C(=O)[C@]2(C)[C@@H](OC)C[C@H]3OC[C@@]3(OC(C)=O)[C@H]2[C@H](OC(=O)c2ccccc2)[C@]2(O)C[C@H](OC(=O)[C@H](O)[C@@H](NC(=O)OC(C)(C)C)c3ccccc3)C(C)=C1C2(C)C [cabazitaxel, 4α-acetoxy-2α-benzoyloxy-5β,20-epoxy-1β-hydroxy-7β, 10β-dimethoxy-9-oxo-11-taxen-13α-yl (2R,3S)-3-tert-butoxycarbonylamino-2-hydroxy-3-phenylpropionate]
- Comments [1, 5]: Active
- T-C in days (750 mg) [1, 5]: 11.0 days
- T/C in % on day 20 [1, 5]: 5%
- log10 cell kill gross [1, 5]: 1.3
- Comments [1, 6]: Active
- T-C in days (750 mg) [1, 6]: 11.7 days
- T/C in % on day 20 [1, 6]: 3%
- log10 cell kill gross [1, 6]: 1.4
- Comments [1, 7]: HNTD active
- T-C in days (750 mg) [1, 7]: 15.2 days
- T/C in % on day 20 [1, 7]: 0%
- log10 cell kill gross ([1]; cabazitaxel alone 20.0 mg/kg/inj IV (total 40.0), days 5, 12 (HNTD)): 1.8
- Drug death [2, 5]: 0/6
- % Body weight change at nadir ([2]; cabazitaxel alone 7.7 mg/kg/inj IV (total 15.4), days 5, 12, nadir day 9): −6.8%
- Drug death [2, 6]: 0/6
- % Body weight change at nadir ([2]; cabazitaxel alone 12.4 mg/kg/inj IV (total 24.8), days 5, 12, nadir day 9): −8.1%
- Drug death [2, 7]: 0/6
- % Body weight change at nadir ([2]; cabazitaxel alone 20.0 mg/kg/inj IV (total 40.0), days 5, 12, nadir day 19): −14.6%
- Comments [2, 8]: Toxic (6/6 DD)
- Drug death [2, 8]: 6/6
- highest nontoxic dose (HNTD) ([2]; cabazitaxel alone IV, days 5, 12 (total injected dose 40 mg/kg)): 20 mg/kg/inj

SMILES: N.N.[Cl][Pt][Cl] [cisplatin]
- Comments [1, 9]: Active
- T-C in days (750 mg) [1, 9]: 15.1 days
- T/C in % on day 20 [1, 9]: 2%
- log10 cell kill gross [1, 9]: 1.8
- T-C in days (750 mg) ([1]; cisplatin alone […] IV (total 8.6), days 5, 12): 22.1 days
- effect of cabazitaxel on the PK of cisplatin (total and free) [3]: did not appear to alter
- AUClast, free platinum [4]: 4170 ng·h/mL
- AUClast, total platinum [4]: 45 820 ng.h/mL
